Results: patent US11261175B2 (priority 2017, dated 2022)

Legend:
Format in all cases: cell-based
[1] = test system: HCV replicon NK5.1-Gluc (genotype 1b); assay: Anti-HCV activity using HCV replicon NK5.1-Gluc (genotype 1b) in Huh 7.5.1 cells, luciferase readout; details: Hepatitis C virus, 72 h; Huh 7.5.1 cells with NK5.1-Gluc replicon, 3 days, Gaussia luciferase; read-out: HCV wt. GT-1b
[2] = test system: JFH5a-Rluc-ad34 virus (HCV GT-2a); assay: Anti-HCV activity using HCVcc (JFH5a-Rluc-ad34 virus) in Huh 7.5.1 cells, Renilla luciferase readout; details: Hepatitis C virus, GT2A, Huh-7.5.1, 72 h, read-out: HCV wt. GT-2a
In short: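 Huh 7.5.1 cells were inoculated with JFH5a-Rluc-ad34, a JFH1-derived virus with adaptive E2/p7 mutations, for 4 h before serially diluted compound was added. Intracellular Renilla luciferase was read after three days and normalized to mock-treated controls.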

[3] = test system: HCV genotype 1b replicon with NS5A L31V+Y93H (double mutant); assay: Transiently transfected assay of genotype 1b resistance mutant RNA L31V+Y93H (double mutant); details: Hepatitis C virus, Huh-7.5.1, 72 h, read-out: HCV Mutation L31V + Y93H
In short: (§1)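 Huh7.5.1 cells were electroporated with in vitro-transcribed, ScaI-linearized replicon RNAs carrying the Daclatasvir-resistance substitutions, then seeded 4 h later into DMEM with serially diluted compound. After 3 days, intracellular luciferase activity was read and normalized to mock-treated cells.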

[4] = test system: HCV genotype 1b replicon with NS5A L31V mutation; assay: Transiently transfected assay of genotype 1b resistance mutant RNA L31V; details: Hepatitis C virus, Huh-7.5.1, 72 h, read-out: HCV Mutation L31V
In short: as §1

[5] = test system: HCV genotype 1b replicon with NS5A Y93H mutation; assay: Transiently transfected assay of genotype 1b resistance mutant RNA Y93H; details: Hepatitis C virus, Huh-7.5.1, 72 h, read-out: HCV Mutation Y93H
In short: as §1

[6] = test system: HCV replicon S52-Feo (genotype 3a); assay: Anti-HCV activity using HCV replicon S52-Feo (genotype 3a) in Huh 7.5.1 cells, luciferase readout; details: Hepatitis C virus, 72 h; Huh 7.5.1 cells with S52-Feo replicon, 3 days, firefly luciferase; read-out: HCV wt. GT-3a

Row | SMILES | EC50 [1] [nM] | EC50 [2] [nM] | EC50 [3] [nM] | EC50 [4] [nM] | EC50 [5] [nM] | EC50 [6] [nM]
1 | CCCCCC1(CCCCC)c2cc(NC(=O)[C@@H]3CC(=O)CN3C(=O)[C@H](NC(=O)OC)c3ccccc3)ccc2-c2ccc(NC(=O)[C@@H]3CC4(CN3C(=O)[C@H](NC(=O)OC)c3ccccc3)OCCO4)cc21 [Example 18, methyl ((R)-2-((S)-8-((7-((S)-1-((R)-2-((methoxycarbonyl)amino)-2-phenylacetyl)-4-oxopyrrolidine-2-carboxyamido)-9,9-dipentyl-9H-fluorene-2-yl)carbamoyl)-1,4-dioxa-7-azaspiro[4.4]nonane-7-yl)-2-oxo-1-phenylethyl)carbamate] | 0.01 to 0.1 | 1 to 100 | 1 to 100 | 0.01 to 0.1 | 0.1 to 1 | 0.1 to 1
2 | CCCCC1(CCCC)c2cc(NC(=O)[C@@H]3C[C@@H](OCCOC)CN3C(=O)[C@H](NC(=O)OC)c3ccccc3)ccc2-c2ccc(NC(=O)[C@@H]3C[C@@H](OCCOC)CN3C(=O)[C@H](NC(=O)OC)c3ccccc3)cc21 [Example 34, dimethyl (1R,1′R)-2,2′-((3R,3′R,5S,5′S)-5,5′-(9,9-dibutyl-9H-fluorene-2,7-diyl)bis(azanediyl)bis(oxomethylene)bis(3-(2-methoxyethoxy)pyrrolidine-5,1-diyl))bis(2-oxo-1-phenylethane-2,1-diyl)dicarbamate] | 0.1 to 1 | 1 to 100 | 1 to 100 | 0.01 to 0.1 | 0.01 to 0.1 | 1 to 100
3 | COC(=O)N[C@@H](C(=O)N1CCC[C@H]1C(=O)Nc1ccc2c(c1)C(CCCC(F)(F)F)(CCCC(F)(F)F)c1cc(NC(=O)[C@@H]3CCCN3C(=O)[C@H](NC(=O)OC)c3ccccc3)ccc1-2)c1ccccc1 [Example 4, dimethyl ((1R,1′R)-((2S,2′S)-(((9,9-bis(4,4,4-trifluorobutyl)-9H-fluorene-2,7-diyl)bis(azanediyl))bis(carbonyl))bis(pyrrolidine-2,1-diyl))bis(2-oxo-1-phenylethane-2,1-diyl))dicarbamate] | 0.001 to 0.01 | 1 to 100 | 1 to 100 | 0.1 to 1 | > 100 | 0.01 to 0.1
4 | CCCCCC1(CCCCC)c2cc(NC(=O)[C@@H]3CC4(CN3C(=O)[C@H](NC(=O)OC)c3ccccc3)OCCO4)ccc2-c2ccc(NC(=O)[C@@H]3CC4(CN3C(=O)[C@H](NC(=O)OC)c3ccccc3)OCCO4)cc21 [Example 13, dimethyl ((1R,1′R)-((8S,8′S)-(((9,9-dipentyl-9H-fluorene-2,7-diyl)bis(azanediyl))bis(carbonyl))bis(1,4-dioxa-7-azaspiro[4.4]nonane-8,7-diyl))bis(2-oxo-1-phenylethane-2,1-diyl))dicarbamate] | 0.001 to 0.01 | 1 to 100 | 0.01 to 0.1 | 0.001 to 0.01 | 0.001 to 0.01 | 0.1 to 1
5 | CCCCC1(CCCC)c2cc(NC(=O)[C@@H]3CCCN3C(=O)[C@H](NC(=O)OC)c3ccccc3)ccc2-c2ccc(NC(=O)[C@@H]3CC(=O)CN3C(=O)[C@H](NC(=O)OC)c3ccccc3)cc21 [Example 10, methyl ((R)-2-((S)-2-((9,9-dibutyl-7-((S)-1-((R)-2-((methoxycarbonyl)amino)-2-phenylacetyl)pyrrolidine-2-carboxyamido)-9H-fluorene-2-yl)carbamoyl)-4-oxopyrrolidine-1-yl)-2-oxo-1-phenylethyl)carbamate] | 0.001 to 0.01 | 0.1 to 1 | 1 to 100 | 0.001 to 0.01 | 0.1 to 1 | 0.01 to 0.1
6 | CCC1(CC)c2cc(NC(=O)[C@@H]3CCCN3C(=O)[C@H](NC(=O)OC)c3ccccc3)ccc2-c2ccc(-c3cnc([C@@H]4CCCN4C(=O)[C@@H](NC(=O)OC)C(C)C)[nH]3)cc21 [Example 8, methyl ((S)-1-((S)-2-(5-(9,9-diethyl-7-((S)-1-((R)-2-((methoxycarbonyl)amino)-2-phenylacetyl)pyrrolidine-2-carboxyamido)-9H-fluorene-2-yl)-1H-imidazole-2-yl)pyrrolidine-1-yl)-3-methyl-1-oxobutane-2-yl)carbamate] | 0.001 to 0.01 | 0.001 to 0.01 | 1 to 100 | 0.01 to 0.1 | 0.01 to 0.1 | 0.01 to 0.1
7 | CCCCC1(CCCC)c2cc(NC(=O)[C@@H]3C[C@H](COC)CN3C(=O)[C@H](NC(=O)OC)c3ccccc3)ccc2-c2ccc(-c3cnc([C@@H]4C[C@H](COC)CN4C(=O)[C@@H](NC(=O)OC)C(C)C)[nH]3)cc21 [Example 40, methyl ((S)-1-((2S,4S)-2-(5-(9,9-dibutyl-7-((2S,4S)-1-((R)-2-((methoxycarbonyl)amino)-2-phenylacetyl)-4-(methoxymethyl)pyrrolidine-2-carboxyamido)-9H-fluorene-2-yl)-1H-imidazole-2-yl)-4-(methoxymethyl)pyrrolidine-1-yl)-3-methyl-1-oxobutane-2-yl)carbamate] | 0.001 to 0.01 | 0.01 to 0.1 | 1 to 100 | 0.001 to 0.01 | 0.01 to 0.1 | 0.1 to 1
